# From US11034970B2, “Production of protein from hairy roots of a Brassicaceae plant utilizing rhizobium comprising rol genes” (UNIVERSITE DE PICARDIE JULES VERNE, priority 2015, dated 2021)
# “And” between values parts separate entries of the source, which are not always exact repeats. Equal values may be shown once.
# Assays:
# Format in all cases: cell-based, Brassica rapa
# [1] = system: hairy roots of the clone 2M1; assay: Test 1: quantification by fluorometry of GFP secreted in the culture medium (Petri dishes)
# Method: (§1) In order to modify the morphology of the hairy roots and prevent the development of the root hairs, roots of the clone 2M1 producing GFP were cultured in B53 liquid medium for two weeks. This culture medium was then removed and replaced with fresh B53 medium containing 2,4-dichlorophenoxyacetic acid (2,4-D), an auxin-type hormone, at 0.5 mg/l.
# (§2) For the quantification of 6× His-EGFP, culture medium was diluted to 20× or 40× in a 50 mM tris buffer at pH 7.5. The fluorescence of the solution was measured using the BioRad VersaFluor™ fluorometer (excitation filter 485-495 nm; emission filter 505-515 nm). The calibration of the fluorometer was carried out using the commercially available recombinant 6× His-EGFP (BioVision) at a concentration of 10 mg/l.
# After culture of hairy roots of the clone 2M1 in B53 liquid medium for two weeks, this medium was replaced with fresh B53 medium containing 2,4-D auxin at 0.5 mg/l, in order to induce the development of lateral root emergences. The hairy roots of the clone 2M1 were thus cultured in Petri dishes containing 5 ml of B53 medium with 2,4-D added, at 23° C. and under stirring at 56 rpm.
# The GFP secreted in the culture medium by the hairy roots having lateral root emergences, was quantified (10 repetitions) one and two weeks after the addition of 2,4-D auxin at 0.5 mg/l (Table 2).
# Hairy roots of the clone 2M1 were cultured (9 repetitions) under the same conditions changing the B53 medium with fresh B53 medium but without the addition of auxin after culture for the first two weeks, in order to constitute control batches of hairy roots.
# [2] = system: hairy roots of the clone LG5; assay: Human gastric lipase activity in the liquid culture medium (4-methylumbelliferyl oleate substrate); details: 2,4-D 1 mg/l
# Method: For this study, a subculture was carried out in six empty Erlenmeyer flasks, to which 1 g of biomass of the same mass of roots of the clone LG5 and 100 ml of liquid Gamborg B53 medium are added. The roots are cultured at 26° C. and under stirring at 110 rpm for two weeks.
# In order to induce the development of lateral root emergences (LRE) in three Erlenmeyer flasks, this liquid medium is replaced with fresh B53 culture medium containing 2,4-dichlorophenoxyacetic acid (2,4-D) at 1 mg/l.
# In the other three Erlenmeyer flasks having conventional hairy roots (HR), it is replaced with fresh B53 liquid culture medium, without 2,4-D.
# After culture for two weeks at 26° C. with stirring at 110 rpm, a second change of medium was carried out in the flasks in an identical manner, in order to replace the culture medium with a fresh culture medium with +/−2,4-D at 1 mg/l.
# The activity of the human gastric lipase is measured directly from the liquid culture media in the 6 flasks (14 days and 28 days after induction). The enzymatic activity is measured at 37° C. using 4-methylumbelliferyl oleate (0.1 mM) as substrate. The fluorescence of the 4-methylumbelliferone (MU), product of the enzyme reaction by the gastric lipase, is measured with a fluorometer (Excitation: 330 nm; Emission: 450 nm). This fluorescence is correlated to the human gastric lipase activity (FIG. 11).
# [3] = system: hairy roots of the clone 2M1; assay: Induction of lateral root emergences on hairy roots, morphology; details: 2,4-D 0.5 mg/l in B53 medium, during the following 7 days
# Method: as §1
# In order to characterize these conical structures or “lateral root emergences” developing on the roots after hormonal induction, longitudinal sections (FIG. 3) and cross sections (FIG. 4) were produced in the control hairy roots after culture for 2 weeks in B53 medium and in hairy roots having lateral root emergences after culture for 2 weeks in B53 medium with 2,4-D auxin added.
# The tissues were fixed in 4% p-formaldehyde overnight at 4° C., dehydrated in baths of ethanol of increasing concentrations, then enclosed in LR White resin. Sections with a thickness of 0.5 to 1 μm were produced using a Leica RM2265 microtome, stained with toluidine blue and observed using a Nikon Eclipse 90i microscope. The images were obtained using a Nikon Digital Sight DS-5Mc device, in visible light or in fluorescence to locate the GFP.
# [4] = system: hairy roots of the clone 2M1; assay: Test 3: GFP concentration in the culture medium after culture for 21 days (Petri dishes); details: 2,4-D 1 mg/l
# Method: as §2
# Roots of the clone 2M1 were inoculated in 14 Petri dishes, each containing 5 ml of liquid B53 culture medium. They were cultured at 26° C. under stirring at 110 rpm for 17 days.
# The medium was then changed in the Petri dishes as follows: • in seven Petri dishes, the medium was removed and replaced with fresh B53 culture medium with 2,4-D added at 1 mg/l (LRE 1 to 7) in order to induce the development of lateral root emergences in these dishes; • and in the other seven Petri dishes, the medium was removed and replaced with fresh B53 culture medium (Controls 1 to 7).
# The roots were maintained at 26° C. under stirring at 110 rpm for 21 days.
# [5] = system: hairy roots of the clone 2M1; assay: Test 2: GFP secreted in the culture medium, Erlenmeyer flasks, two renewals of medium; details: 2,4-D 1 mg/l, first change of medium
# Method: as §2
# The clone 2M1 was inoculated at t0 into 5 Erlenmeyer flasks at a rate of 2 g of fresh roots in 100 ml of B53 medium. After culture at 26° C. with a stirrer at 110 rpm for 15 days, the roots have reached a mass of 24.4 g+/−3.90.
# A first change of medium was then carried out in each of the flasks as follows; • in two flasks, the B53 medium was replaced with fresh B53 medium in order to carry out two repetitions for the control hairy roots; • in three flasks, the B53 medium was replaced with B53 medium with 2,4-D added at 1 mg/l in order to carry out three repetitions for inducing the development of lateral root emergences;
# The GFP secreted in the culture medium was quantified 7 to 14 days after this first change of medium.
# A second change of medium was then carried out in these same flasks, in an identical manner:
# in the two flasks of control hairy roots. the B53 medium was replaced with fresh B53 medium; […]
# [6] = lateral root emergences (LRE), 37° C., 3 flasks
compound,measurement,setting,value
"O=C(O)COc1ccc(Cl)cc1Cl [2,4-D, 2,4-dichlorophenoxyacetic acid]",GFP in the culture medium versus control hairy roots (Student's test),"[1]; 2,4-D 0.5 mg/l versus medium without 2,4-D",significant difference
same,"GFP in the culture medium, 2 weeks after B53 + 2,4-D, average","[1]; average of 10 Petri dishes (n=10), 2,4-D 0.5 mg/l",164 ± 10.3 mg/L and 164 mg/L
same,"GFP in the culture medium, 1 week after B53 + 2,4-D, average","[1]; average of 10 Petri dishes, 2,4-D 0.5 mg/l",52 mg/L
same,"activity of the human gastric lipase, times greater than conventional hairy roots (HR)",[2]; LRE versus HR,approximately 3
same,activity of the human gastric lipase in the culture medium at 14 days,[2]; [6],16 ± 0.6 pmol/min
same,activity of the human gastric lipase in the culture medium at 28 days,[2]; [6],45 ± 0.3 pmol/min
same,morphology of the hairy roots after hormonal induction,[3],Numerous conical structures called “lateral root emergences” (LRE) then developed on the hairy roots
same,concentration of GFP in the medium after 21 days,"[4]; 7 Petri dishes, roots with lateral root emergences",597 mg/L
same,"concentration of GFP in the medium, times greater than control hairy roots",[4]; after 21 days,4.3
same,secretion of GFP versus control cultures after treatment for 14 days,[5],doubled
